# Patent publication US20210189342A1, “COMPOSITIONS AND METHODS FOR MODULATING MONOCYTE AND MACROPHAGE INFLAMMATORY PHENOTYPES AND IMMUNOTHERAPY USES THEREOF” (Verseau Therapeutics, Inc., priority 2018, published 2021)
# Tested on: CD53
# Test: siRNA dose response, CD53 mRNA knockdown, bDNA Assay
# Assay type: cell-based, human
# Details: THP-1, 24 hr
# Protocol: (§1) Dose response curves for siRNAs were generated in vitro using a variety of cell lines according to Table 4.
# (§2) Briefly, cells were seeded in 96-well plates and reverse transfected with siRNA, Lipofectamine® 2000 (0.5 uL/well; ThermoFisher), and, in some cases, a reporter plasmid (50 ng/well). The reporter plasmid (psiCHECK™-2, Promega) encoded both firefly luciferase and the gene of interest fused to renilla luciferase; silencing of the gene of interest results in proportional silencing of renilla luciferase but leaves firefly luciferase unaffected as an internal control.
# (§3) After 24 hr incubation at 37° C., mRNA knockdown was measured using an endpoint assay. For targets without a reporter plasmid, a branched DNA (bDNA) assay was performed according to the manufacturer's instructions (QuantiGene® Singleplex Gene Expression Assay, ThermoFisher) to measure both the target gene and GAPDH (housekeeping gene) mRNA. Data are plotted as siRNA concentration (nM) vs. remaining mRNA (ratio of target gene to GAPDH, normalized to mock siRNA-transfected cells). For targets with a reporter plasmid, a Dual-Glo® Luciferase Assay was performed according to the manufacturer's instructions (Promega) to measure firefly and renilla luciferase expression. Data are plotted as siRNA concentration (nM) vs. remaining mRNA (ratio of renilla to firefly luminescence, normalized to mock siRNA-transfected cells).
# (§4) For all dose response curves, a 4-parameter logistic model was applied to determine the IC50 of each siRNA sequence (Table 5 and FIG. 2). Data shown in Table 5 and FIG. 2 represent the mean of quadruplicates, +/−standard deviation.
row,Substance,IC50
1,"XD-09208: siRNA targeting CD53 (sense 5'-uuuAuuAGAGGGccuuAuudTsdT-3'; antisense 5'-AAuAAGGCCCUCuAAuAAAdTsdT-3'; as printed in the source, key not given here)",0.162 nM
2,"XD-09209: siRNA targeting CD53 (sense 5'-auuGAuGuGuucuaAGucudTsdT-3'; antisense 5'-AGACUuAGAAcAcAUcAAUdTsdT-3'; as printed in the source, key not given here)",0.041 nM
3,"XD-09203: siRNA targeting CD53 (sense 5'-gcAuGGGcucuAucAAGGAdTsdT-3'; antisense 5'-UCCUUGAuAGAGCCcAUGCdTsdT-3'; as printed in the source, key not given here)",0.178 nM
4,"XD-09201: siRNA targeting CD53 (sense 5'-gcAuGAGuAGcuugAAAcudTsdT-3'; antisense 5'-AGUUUcAAGCuACUcAUGCdTsdT-3'; as printed in the source, key not given here)",0.067 nM
5,"XD-09205: siRNA targeting CD53 (sense 5'-acuAAuAucuGAGcAucuudTsdT-3'; antisense 5'-AAGAUGCUcAGAuAUuAGUdTsdT-3'; as printed in the source, key not given here)",0.132 nM

# Tested on: LRRC25
# Test: siRNA dose response, LRRC25 mRNA knockdown, Dual-Glo Luciferase Assay
# Assay type: cell-based, human
# Details: Hepa1-6 + reporter plasmid, 24 hr
# Protocol: as §1, §2, §3, §4
row,Substance,IC50
1,"XD-09259: siRNA targeting LRRC25 (sense 5'-cuucGAGGcuGAugAGGcudTsdT-3'; antisense 5'-AGCCUcAUcAGCCUCGAAGdTsdT-3'; RNA with 2'-O-methyl and phosphorothioate modifications, case key not given here, as printed in the source, key not given here)",0.293 nM
2,"XD-09256: siRNA targeting LRRC25 (sense 5'-ccGAcuAuGAGAAcAuGuudTsdT-3'; antisense 5'-AAcAUGUUCUcAuAGUCGGdTsdT-3'; as printed in the source, key not given here)",0.601 nM
3,"XD-09251: siRNA targeting LRRC25 (sense 5'-gccGucGcuuuuccAGcAudTsdT-3'; antisense 5'-AUGCUGGAAAAGCGACGGCdTsdT-3'; RNA with 2'-O-methyl and phosphorothioate modifications, case key not given here, as printed in the source, key not given here)",2.77 nM
4,"XD-09258: siRNA targeting LRRC25 (sense 5'-caAuAAAuGcuucgAGGcudTsdT-3'; antisense 5'-AGCCUCGAAGcAUUuAUUGdTsdT-3'; RNA with 2'-O-methyl and phosphorothioate modifications, case key not given here, as printed in the source, key not given here)",0.033 nM
5,"XD-09250: siRNA targeting LRRC25 (sense 5'-gccAGAGGAAcGccAGcGAdTsdT-3'; antisense 5'-UCGCUGGCGUUCCUCUGGCdTsdT-3'; as printed in the source, key not given here)",15 nM

# Tested on: FERMT3
# Test: siRNA dose response, FERMT3 mRNA knockdown, bDNA Assay
# Assay type: cell-based, human
# Details: THP-1, 24 hr
# Protocol: as §1, §2, §3, §4
row,Substance,IC50
1,"XD-09708: siRNA targeting FERMT3 (sense 5'-gcuGccGAAuuGuacAcGAdTsdT-3'; antisense 5'-UCGUGuAcAAUUCGGcAGCdTsdT-3'; RNA with 2'-O-methyl and phosphorothioate modifications, case key not given here, as printed in the source, key not given here)",0.012 nM
2,"XD-09701: siRNA targeting FERMT3 (sense 5'-ggcuGcGcuucAAguAcuAdTsdT-3'; antisense 5'-uAGuACUUGAAGCGcAGCCdTsdT-3'; RNA with 2'-O-methyl and phosphorothioate modifications, case key not given here, as printed in the source, key not given here)",0.921 nM
3,"XD-09705: siRNA targeting FERMT3 (sense 5'-guucccGAuGuuAacGucudTsdT-3'; antisense 5'-AGACGUuAAcAUCGGGAACdTsdT-3'; RNA with 2'-O-methyl and phosphorothioate modifications, case key not given here, as printed in the source, key not given here)",6.75 nM
4,"XD-09709: siRNA targeting FERMT3 (sense 5'-guAGcuAcAGGAugAuGAAdTsdT-3'; antisense 5'-UUcAUcAUCCUGuAGCuACdTsdT-3'; RNA with 2'-O-methyl and phosphorothioate modifications, case key not given here, as printed in the source, key not given here)",0.048 nM

# Tested on: DOCK2
# Test: siRNA dose response, DOCK2 mRNA knockdown, bDNA Assay
# Assay type: cell-based, human
# Details: THP-1, 24 hr
# Protocol: as §1, §2, §3, §4
row,Substance,IC50
1,"XD-09696: siRNA targeting DOCK2 (sense 5'-cucAuuGcAGAccgGAAAudTsdT-3'; antisense 5'-AUUUCCGGUCUGcAAUGAGdTsdT-3'; RNA with 2'-O-methyl and phosphorothioate modifications, case key not given here, as printed in the source, key not given here)",1.77 nM
2,"XD-09698: siRNA targeting DOCK2 (sense 5'-ggucGAGGAcAuuauuuucdTsdT-3'; antisense 5'-GAAAAuAAUGUCCUCGACCdTsdT-3'; as printed in the source, key not given here)",1.36 nM
3,"XD-09697: siRNA targeting DOCK2 (sense 5'-accGGAAAuuucAgcAuuudTsdT-3'; antisense 5'-AAAUGCUGAAAUUUCCGGUdTsdT-3'; RNA with 2'-O-methyl and phosphorothioate modifications, case key not given here, as printed in the source, key not given here)",0.556 nM
4,"XD-09691: siRNA targeting DOCK2 (sense 5'-ggGGAuAccucAuaAAGcAdTsdT-3'; antisense 5'-UGCUUuAUGAGGuAUCCCCdTsdT-3'; RNA with 2'-O-methyl and phosphorothioate modifications, case key not given here, as printed in the source, key not given here)",11.7 nM
5,"XD-09694: siRNA targeting DOCK2 (sense 5'-ccAucuGcGAuucauGuuudTsdT-3'; antisense 5'-AAAcAUGAAUCGcAGAUGGdTsdT-3'; RNA with 2'-O-methyl and phosphorothioate modifications, case key not given here, as printed in the source, key not given here)",0.403 nM
